# Legend:
# [1] = Cytotoxicity against HEK293 cells assessed as inhibition of cell growth incubated for 48 hrs by CCK8 assay; assay type: toxicity, cell-based; conditions: human
# [2] = molecular target: T1, Glycine receptor subunit alpha-2 (Homo sapiens, UniProt P23416); assay: Inhibition of human […] glycine receptor alpha 2 expressed in HEK293 cells; assay type: cell-based
# T1 sequence (P23416 whole entry): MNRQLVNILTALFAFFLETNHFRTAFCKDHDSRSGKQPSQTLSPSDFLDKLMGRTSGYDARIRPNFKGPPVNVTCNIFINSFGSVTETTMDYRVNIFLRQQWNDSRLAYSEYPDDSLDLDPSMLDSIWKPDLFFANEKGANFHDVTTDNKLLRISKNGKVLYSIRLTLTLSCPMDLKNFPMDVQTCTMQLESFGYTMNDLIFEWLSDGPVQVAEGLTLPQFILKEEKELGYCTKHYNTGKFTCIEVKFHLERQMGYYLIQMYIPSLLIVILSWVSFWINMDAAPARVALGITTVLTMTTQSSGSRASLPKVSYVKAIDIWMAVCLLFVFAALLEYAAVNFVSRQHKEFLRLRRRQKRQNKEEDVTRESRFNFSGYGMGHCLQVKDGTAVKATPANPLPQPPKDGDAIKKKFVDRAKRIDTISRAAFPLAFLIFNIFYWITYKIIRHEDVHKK
# [3] = molecular target: T2, Glycine receptor subunit alpha-1 (Homo sapiens, UniProt P23415); assay: Inhibition of human […] glycine receptor alpha 1 expressed in HEK293 cells; assay type: cell-based
# T2 sequence (P23415 whole entry): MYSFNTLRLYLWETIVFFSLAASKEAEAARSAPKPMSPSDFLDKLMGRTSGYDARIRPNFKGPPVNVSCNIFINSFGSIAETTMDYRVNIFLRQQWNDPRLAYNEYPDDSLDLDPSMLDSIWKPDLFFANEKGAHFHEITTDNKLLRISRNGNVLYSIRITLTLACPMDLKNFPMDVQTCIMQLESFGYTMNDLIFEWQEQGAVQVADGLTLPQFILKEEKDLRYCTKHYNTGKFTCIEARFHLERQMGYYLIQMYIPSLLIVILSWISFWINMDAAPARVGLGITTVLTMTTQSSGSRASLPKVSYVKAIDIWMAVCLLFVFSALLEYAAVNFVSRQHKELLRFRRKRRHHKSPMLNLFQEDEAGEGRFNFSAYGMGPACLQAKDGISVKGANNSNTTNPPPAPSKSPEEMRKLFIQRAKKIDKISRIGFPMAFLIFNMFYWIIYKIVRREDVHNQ
# [4] = Inhibition of […] glycine receptor (unknown origin) expressed in HEK293 cells; assay type: cell-based, Homo sapiens
smiles,measurement,setting,value
C=C(C)[C@@H]1CCC(C)=C[C@H]1c1c(O)cc(CCCCC)cc1O [CANNABIDIOL],EC50 at 48 h,[1],12 µM
same,IC50,[2],2.7 µM
CCCCCCC(C)(C)c1cc(O)c2c(c1)OC(C)(C)[C@@H]1CC=C(CO)C[C@@H]21,IC50,[3],2.7 µM
CCCCCc1cc(O)c2c(c1)OC(C)(C)[C@@H]1CCC(C)=C[C@@H]21 [DRONABINOL],IC50,[4],2.7 µM

# Reference: ChEMBL document CHEMBL5528078, “Structural Basis for Molecular Recognition of Cannabinoids by Inhibitory Cys-Loop Channels” (J Med Chem, 2024)
